Assay results taken from the supplement of paper PMC6045584.
± gives the standard deviation of the averaged measurements.

What was measured:
MK0752 = compound: O=C(O)CC[C@H]1CC[C@@](c2cc(F)ccc2F)(S(=O)(=O)c2ccc(Cl)cc2)CC1 [MK0752]; test: surviving fraction relative to DMSO-only wells; higher = less growth inhibition; conditions: exposure time: 5 days
How it was run: (§1)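 Luminescence normalised to the median of DMSO-only wells defines surviving fraction, with viability read by CellTiter-Glo. Signal was recorded after 10 minutes at room temperature, once log-phase tumour cell lines seeded at 250–500 cells per well in 384-well plates had spent 24 hours settling and then five days under continuous exposure to inhibitors at 0.5, 1, 5, 10, 50, 100, 500 and 1000 nM.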

SUNITINIB = compound: CCN(CC)CCNC(=O)c1c(C)[nH]c(/C=C2\C(=O)Nc3ccc(F)cc32)c1C [SUNITINIB]; test: as above; conditions: exposure time: 5 days
How it was run: as §1

Test System | surviving fraction (MK0752; 0.5 nM) | surviving fraction (MK0752; 1 nM) | surviving fraction (MK0752; 5 nM) | surviving fraction (MK0752; 10 nM) | surviving fraction (MK0752; 50 nM) | surviving fraction (MK0752; 100 nM) | surviving fraction (MK0752; 500 nM) | surviving fraction (MK0752; 1000 nM) | surviving fraction (SUNITINIB; 0.5 nM) | surviving fraction (SUNITINIB; 1 nM) | surviving fraction (SUNITINIB; 10 nM) | surviving fraction (SUNITINIB; 50 nM) | surviving fraction (SUNITINIB; 100 nM) | surviving fraction (SUNITINIB; 500 nM) | surviving fraction (SUNITINIB; 1000 nM) | surviving fraction (SUNITINIB; 5 nM)
PCI30 HEADNECK | 1.02 ± 0.12 | 1.04 ± 0.12 | 1.09 ± 0.057 | 1.1 ± 0.05 | 1.06 ± 0.076 | 1.08 ± 0.092 | 1.03 ± 0.047 | 1.04 ± 0.018 | 0.949 ± 0.075 | 0.936 ± 0.033 | 1.13 ± 0.05 | 1.38 ± 0.064 | 1.45 ± 0.19 | 1.2 ± 0.033 | 1.03 ± 0.052 | 
RDES SOFT TISSUE | 1.27 ± 0.1 | 1.241 ± 0.0096 | 1.17 ± 0.1 | 1.21 ± 0.18 | 1.03 ± 0.15 | 1.18 ± 0.29 | 0.97 ± 0.097 | 0.998 ± 0.12 | 0.851 ± 0.24 | 0.741 ± 0.2 | 0.794 ± 0.12 |  | 1.08 ± 0.19 | 1.17 ± 0.17 | 0.567 ± 0.099 | 0.794 ± 0.11
S68 BREAST | 0.684 ± 0.15 | 0.975 ± 0.11 | 0.912 ± 0.11 | 0.96 ± 0.28 | 0.94 ± 0.094 | 0.989 ± 0.058 | 0.919 ± 0.19 | 1.04 ± 0.27 | 0.716 ± 0.13 | 0.674 ± 0.15 | 0.74 ± 0.18 | 1.07 ± 0.098 | 0.98 ± 0.13 | 0.709 ± 0.065 | 0.488 ± 0.1 | 
SAOS2 BONE | 1.18 ± 0.028 | 1.2037 ± 0.00058 | 1.19 ± 0.12 | 1.22 ± 0.077 | 1.237 ± 0.0098 | 1.19 ± 0.076 | 1.12 ± 0.019 | 1.092 ± 0.0035 | 0.792 ± 0.052 | 0.691 ± 0.088 | 0.692 ± 0.073 | 0.985 ± 0.064 | 0.863 ± 0.093 | 0.301 ± 0.046 | 0.154 ± 0.0052 | 
SCC36 HEADNECK | 1.06 ± 0.15 | 1.13 ± 0.14 | 1.19 ± 0.064 | 0.962 ± 0.057 | 1.12 ± 0.035 | 1.03 ± 0.055 | 1.03 ± 0.047 | 0.965 ± 0.073 | 0.754 ± 0.059 | 0.783 ± 0.11 | 0.714 ± 0.078 |  | 0.872 ± 0.074 | 0.441 ± 0.047 | 0.222 ± 0.021 | 0.8 ± 0.02
SCC47 HEADNECK | 1.13 ± 0.12 | 1.17 ± 0.034 | 1.2 ± 0.089 | 1.14 ± 0.029 | 1.14 ± 0.064 | 1.18 ± 0.038 | 1.03 ± 0.067 | 1.06 ± 0.058 | 0.886 ± 0.019 | 0.9 ± 0.059 |  | 1.02 ± 0.016 |  | 0.726 ± 0.022 | 0.502 ± 0.041 | 
SCC90 HEADNECK | 1.19 ± 0.014 | 1.11 ± 0.15 | 1.24 ± 0.11 | 1.25 ± 0.12 | 1.11 ± 0.064 | 1.13 ± 0.11 | 1.03 ± 0.093 | 1.11 ± 0.091 |  | 0.814 ± 0.086 | 0.887 ± 0.064 |  | 1.25 ± 0.17 | 0.819 ± 0.06 | 0.522 ± 0.052 | 
SG27 HEADNECK | 0.973 ± 0.05 | 0.891 ± 0.052 | 1.05 ± 0.082 | 0.988 ± 0.096 | 1.01 ± 0.066 | 1.08 ± 0.047 | 0.933 ± 0.14 | 0.923 ± 0.16 |  | 0.949 ± 0.026 | 0.744 ± 0.046 | 1.22 ± 0.077 | 1.25 ± 0.12 | 1.72 ± 0.17 | 0.81 ± 0.064 | 0.922 ± 0.072
SG28 HEADNECK | 1.15 ± 0.048 | 1.04 ± 0.062 | 1.05 ± 0.055 | 1.1 ± 0.027 | 0.982 ± 0.075 | 1.05 ± 0.044 | 1.12 ± 0.13 | 1.13 ± 0.11 | 0.913 ± 0.11 | 0.789 ± 0.051 | 0.313 ± 0.042 | 0.893 ± 0.14 | 0.725 ± 0.044 | 0.4727 ± 0.0046 | 0.124 ± 0.017 | 0.807 ± 0.086
